The values below are quoted from earlier work in publication PMC3720659, “Integrated Analysis of Drug-Induced Gene Expression Profiles Predicts Novel hERG Inhibitors” (PLoS ONE, 2013).

Counter-ions that a name gives are not always drawn. Like-named read-outs stand apart in the source and are kept apart here.

The data set has as its system hERG current. To be noted: cited from earlier work; for Annotation (hERG inhibition class, Active/Inactive by IC50): annotation of the drug, Cell Line (HL60, MCF7, PC3) is the cell line of the drug-induced expression profile, not of the hERG assay, ref hERGcentral. Background: Block of hERG is tested as a sign of cardiac risk.
Where [1] appears, read: hERG inhibition annotation of the drug, the Cell Line (HL60, MCF7, PC3) is the cell line of the expression profile, not of the hERG test.
Where [2] appears, read: hERG annotation of the drug, the Cell Line (HL60, MCF7, PC3) names the expression profile, not the hERG test.

Take `CC[C@H](C)[C@H]1O[C@]2(CC[C@@H]1C)C[C@@H]1C[C@@H](C/C=C(\C)[C@@H](O[C@H]3C[C@H](OC)[C@@H](O[C@H]4C[C@H](OC)[C@@H](O)[C@H](C)O4)[C@H](C)O3)[C@@H](C)/C=C/C=C3\CO[C@@H]4[C@H](O)C(C)=C[C@@H](C(=O)O1)[C@]34O)O2` [ivermectin]: the “Annotation (hERG Active / Inactive)” value under setting [1] is given as “Inactive”. Take `CC(C)C[C@H]1C(=O)N2CCCC2[C@]2(O)O[C@](NC(=O)[C@@H]3C=C4c5cccc6[nH]cc(c56)CC4N(C)C3)(C(C)C)C(=O)N12` (stereo partly drawn) [alpha-ergocryptine]: the “Annotation (hERG Active / Inactive)” value under setting [2] is recorded as “Inactive”. Consider `COC(=O)Nc1nc2ccc(Sc3ccccc3)cc2[nH]1` [fenbendazole], for which the “Annotation (hERG Active / Inactive)” value was “Inactive”.

As for `C[C@@H]1C(=O)O[C@H]2C[C@@]34[C@H]5C[C@@H](C(C)(C)C)[C@]36[C@@H](OC(=O)[C@@H]6O)O[C@@]4(C(=O)O5)[C@]21O` [ginkgolide A], the “Annotation (hERG Active / Inactive)” value under setting [1] was “Inactive”. Turning to `C#C[C@]1(O)CC[C@H]2[C@@H]3CCc4cc(OC)ccc4[C@H]3CC[C@@]21C` [mestranol], the “Annotation (hERG Active / Inactive)” value under setting [1] is “Inactive”.

Consider `COc1ccc2c(c1)[nH]c1c(C)nccc12` [harmine], for which the “Annotation (hERG Active / Inactive)” value under setting [1] is “Inactive”. For `NS(=O)(=O)c1cc(C(=O)O)cc(N2CCCC2)c1Oc1ccccc1` [piretanide], under setting [1], the “Annotation (hERG Active / Inactive)” value is on record as “Inactive”. Take `O=C(O)CCC(=O)c1ccc(-c2ccccc2)cc1` [fenbufen]: the “Annotation (hERG Active / Inactive)” value under setting [2] is listed as “Inactive”. Take prednisolone: the “Annotation (hERG Active / Inactive)” value under setting [1] is “Inactive”. Take `C[N+]1(C)CCCC(OC(=O)C(O)(c2ccccc2)c2ccccc2)C1` (stereo not shown) [mepenzolate bromide]: the “Annotation (hERG Active / Inactive)” value under setting [1] was “Inactive”.

`CNCCC=C1c2ccccc2C=Cc2ccccc21` [norcyclobenzaprine]: the “Annotation (hERG Active / Inactive)” value under setting [1] is “Inactive”. With `O=C(NCNC(=O)NC1C(=O)NC(=O)N1CO)NC1C(=O)NC(=O)N1CO` (stereo not shown) [imidurea], under setting [1], the “Annotation (hERG Active / Inactive)” value is “Inactive”. As for `COc1cc([C@@H]2c3cc4c(cc3[C@H](O)[C@H]3COC(=O)[C@H]23)OCO4)cc(OC)c1OC` [podophyllotoxin], under setting [1], the “Annotation (hERG Active / Inactive)” value is “Inactive”. Consider `COc1cc(C(=O)OCCCN2CCCN(CCCOC(=O)c3cc(OC)c(OC)c(OC)c3)CC2)cc(OC)c1OC` [dilazep], for which the “Annotation (hERG Active / Inactive)” value under setting [2] is reported as “Active”. Regarding `CN1CCCC(CC2c3ccccc3Sc3ccccc32)C1` (stereo not shown) [metixene], under setting [1], the “Annotation (hERG Active / Inactive)” value is recorded as “Active”. Consider isometheptene, for which the “Annotation (hERG Active / Inactive)” value under setting [1] was “Inactive”. Turning to `O=c1[nH]c2ccccc2n1C1CCN(CCCC(c2ccc(F)cc2)c2ccc(F)cc2)CC1` [pimozide], the “Annotation (hERG Active / Inactive)” value is “Active”. As for `CN(C)CC/C=C1/c2ccccc2Sc2ccc(Cl)cc21` [chlorprothixene], the “Annotation (hERG Active / Inactive)” value under setting [2] is recorded as “Active”. Consider `COc1ccc(C[C@H]2NC[C@H](O)[C@H]2OC(C)=O)cc1` [anisomycin], for which the “Annotation (hERG Active / Inactive)” value under setting [2] was “Inactive”. `C=C(C)[C@@H]1[C@H]2OC(=O)[C@@H]1[C@]1(O)C[C@H]3O[C@]34C(=O)O[C@H]2[C@]14C` [picrotoxinin]: the “Annotation (hERG Active / Inactive)” value is “Inactive”. For the molecule `O=c1c(O)c(-c2cc(O)c(O)c(O)c2)oc2cc(O)cc(O)c12` [myricetin], the “Annotation (hERG Active / Inactive)” value under setting [1] is on record as “Inactive”. Turning to `Nc1ccc(S(=O)(=O)Nc2ccnn2-c2ccccc2)cc1` [sulfaphenazole], the “Annotation (hERG inhibition class, Active/Inactive by IC50)” value is given as “Inactive”. On to `CCN1C[C@]2(COC)CC[C@H](O)[C@]34C1[C@@](O)([C@@H](OC)[C@H]23)[C@@]1(O)C[C@H](OC)[C@H]2C[C@@H]4[C@@H]1[C@H]2OC` [delsoline], for which the “Annotation (hERG Active / Inactive)” value under setting [2] is reported as “Inactive”.

In the case of `C1CCC(C(CC2CCCCN2)C2CCCCC2)CC1` (stereo not shown) [perhexiline], the “Annotation (hERG Active / Inactive)” value under setting [1] is recorded as “Inactive”. On to `CN(C)CCCN1c2ccccc2Sc2ccccc21` [promazine], for which the “Annotation (hERG inhibition class, Active/Inactive by IC50)” value is given as “Inactive”. `C[N+](C)(C)CCOC(N)=O` [carbachol]: under setting [2], the “Annotation (hERG Active / Inactive)” value is reported as “Inactive”. For `CC[C@H](c1ccc(O)cc1)[C@@H](CC)c1ccc(O)cc1` [hexestrol], under setting [1], the “Annotation (hERG Active / Inactive)” value is given as “Inactive”. In the case of `CN(Cc1cnc2nc(N)nc(N)c2n1)c1ccc(C(=O)N[C@@H](CCC(=O)O)C(=O)O)cc1` [methotrexate], the “Annotation (hERG Active / Inactive)” value under setting [1] was “Inactive”. Take `NC(CO)C(=O)NNCc1ccc(O)c(O)c1O` (stereo not shown) [benserazide]: the “Annotation (hERG Active / Inactive)” value under setting [2] was “Inactive”. As for `CCCOc1cc(N)ccc1C(=O)OCCN(CC)CC` [propoxycaine], the “Annotation (hERG inhibition class, Active/Inactive by IC50)” value is “Inactive”. As for `COc1cc(Cc2cnc(N)nc2N)cc(OC)c1OC` [trimethoprim], the “Annotation (hERG inhibition class, Active/Inactive by IC50)” value is listed as “Inactive”. Turning to `C[C@]12CC[C@H]3C(=CCc4cc(O)ccc43)[C@@H]1CCC2=O` [equilin], under setting [2], the “Annotation (hERG Active / Inactive)” value is “Inactive”. Take `CNC(=O)c1c(I)c(C(=O)NCC(=O)Nc2c(I)c(C(=O)O)c(I)c(C(=O)NCCO)c2I)c(I)c(N(C)C(C)=O)c1I` [ioxaglic acid]: the “Annotation (hERG Active / Inactive)” value under setting [1] was “Inactive”. Regarding `CC(C)COCC(CN(Cc1ccccc1)c1ccccc1)N1CCCC1` (stereo not shown) [bepridil], the “Annotation (hERG Active / Inactive)” value under setting [2] is “Active”.

In the case of `COc1ccc(Cc2nccc3cc(OC)c(OC)cc23)cc1OC` [papaverine], under setting [1], the “Annotation (hERG Active / Inactive)” value was “Inactive”. Take `CCn1cc(C(=O)O)c(=O)c2cc(F)c(N3CCNCC3)cc21` [norfloxacin]: under setting [1], the “Annotation (hERG Active / Inactive)” value was “Inactive”. Take `O=C(O)/C=C/c1ccc(Cn2ccnc2)cc1` [ozagrel]: the “Annotation (hERG Active / Inactive)” value under setting [1] is listed as “Inactive”. Turning to `Nc1nc2c(ncn2[C@@H]2O[C@H](CO)[C@@H](O)[C@H]2O)c(=S)[nH]1` [thioguanosine], the “Annotation (hERG inhibition class, Active/Inactive by IC50)” value is “Inactive”. Take diphenylpyraline: the “Annotation (hERG Active / Inactive)” value under setting [2] is listed as “Inactive”.

For `CC1(C)O[C@@H]2C[C@H]3[C@@H]4C[C@H](F)C5=CC(=O)C=C[C@]5(C)[C@H]4[C@@H](O)C[C@]3(C)[C@]2(C(=O)CO)O1` [flunisolide], the “Annotation (hERG Active / Inactive)” value under setting [1] is given as “Inactive”. On to `CC(C(=O)O)c1ccc(C(=O)c2ccccc2)s1` (stereo not shown) [tiaprofenic acid], for which the “Annotation (hERG inhibition class, Active/Inactive by IC50)” value is reported as “Inactive”. As for `N=C(N)N/N=C/c1c(Cl)cccc1Cl` [guanabenz], the “Annotation (hERG Active / Inactive)” value under setting [1] is recorded as “Inactive”. With `CCCCCCC[N+](CC)(CC)CCCCc1ccc(Cl)cc1` [clofilium tosylate], under setting [2], the “Annotation (hERG Active / Inactive)” value is recorded as “Active”. On to `CN(C)CCn1nnnc1SCC1=C(C(=O)O)N2C(=O)[C@@H](NC(=O)Cc3csc(N)n3)[C@H]2SC1` [cefotiam], for which, under setting [2], the “Annotation (hERG Active / Inactive)” value is recorded as “Inactive”.

As to `CO[C@@]1(NC(=O)Cc2cccs2)C(=O)N2C(C(=O)O)=C(COC(N)=O)CS[C@@H]21` [cefoxitin], the “Annotation (hERG Active / Inactive)” value under setting [2] was “Inactive”. `CCN1CCCC1CNC(=O)c1cc(S(N)(=O)=O)ccc1OC` (stereo not shown) [sulpiride]: the “Annotation (hERG inhibition class, Active/Inactive by IC50)” value is listed as “Inactive”. Regarding `NNCCc1ccccc1` [phenelzine], the “Annotation (hERG Active / Inactive)” value is “Inactive”. Consider `O=C(CCCN1CCC(n2c(O)nc3ccccc32)CC1)c1ccc(F)cc1` [benperidol], for which the “Annotation (hERG Active / Inactive)” value under setting [2] was “Active”.

In the case of `Nc1c(Br)cc(Br)cc1CN[C@H]1CC[C@H](O)CC1` [ambroxol], the “Annotation (hERG Active / Inactive)” value under setting [2] was “Inactive”.
